# Measured values reported in patent publication US6946259B2, “Compositions and methods for treating cells having double minute DNA” (The Salk Institute For Biological Studies, priority 1998, dated 2005).
# Entries after “also recorded” stand apart in the source; their conditions may differ. Counter-ions that a name gives are not always drawn.
# Columns and labels:
# [1] = tested on: COLO 320DM cells; assay: Quantification of c-myc+ (DM-containing) micronuclei in COLO 320DM cells by FISH; format: cell-based, human; conditions: for micronucleation (frequency of c-myc+ micronuclei): COLO 320DM cells treated for 3 days; for micronucleation efficiency at concentrations that severely inhibited S-phase: COLO 320DM cells, 3 days, high drug concentrations
# Description: (§1) FIGS. 3A and 3B show the effects of various drugs on induction of micronuclei and cell cycle distribution. COLO 320DM cells were treated for 3 days with inhibitors of DNA replication (aphidicolin (“APH”); deferoxamine (“Def”), guanazole (“Gua”); hydroxurea (“HU”); and PALA), repair (coumarin (“Cou”); nicotinamide (“NA”)) or the membrane active agent DMSO at the concentrations indicated. In FIG. 3A, the treated cells were fixed with methanol/acetic acid and hybridized with c-myc cosmid probe. The numbers of micronuclei that were stained brightly with c-myc probe were scored and expressed as “frequency of c-myc^+ micronuclei (%)” relative to the number of interphase nuclei scored (more than 1000 for each point). In FIG. 3B, the cells were pulse-labeled with BrdU (for 30 min) at the end of the drug treatment, and analyzed by flow cytometry as described below to determine the fraction of cells in G1, S, and G2/M.
# Micronuclei containing DM sequences in COLO 320DM cells (FIGS. 2 and 3) were detected by preparing chromosome spreads using standard hypotonic swelling conditions (Lawce and Brown (1991)), followed by hybridization with a biotinylated c-myc cosmid probe as described previously (Shimizu, et al. (1996)). Total micronuclei (FIG. 3) were determined by staining chromosome spreads with DAPI (Sigma; 1 μg/ml in VectaShield, Vector Inc.). The adherent cells (WS1, RPE-h and their derivatives) were grown on cover slips, fixed with cold acetone (−20° C. for 5 min) followed by cold methanol (−20° C. for 5 min), re-hydrated with PBS and stained with DAPI (1 μg/ml in VectaShield). The numbers of total or DM-enriched micronuclei were scored using 60× or 100× objectives and Zeiss fluorescence microscope equipped with appropriate epifluorescence filters. The results are expressed as “Frequency of micronuclei (%)” relative to the number of interphase nuclei scored (at least 1000 for each point).
# [2] = tested on: COLO 320DM cells; assay: Cell cycle distribution of COLO 320DM cells by BrdU/PI flow cytometry; format: cell-based, human; conditions: COLO 320DM cells treated for 3 days
# Description: as §1
# Cell cycle distribution was analyzed using flow cytometry as described previously (Yin, et al. (1992) and Di Leonardo, et al. (1994)). Cells treated with the indicated concentrations of drugs for the indicated times were labeled with 10 μM BrdU for 30 min. […] Samples were analyzed using a Becton Dickinson FACScan. […] Data was analyzed using Sun Display as described previously (Yin, et al. (1992) and Di Leonardo, et al. (1994)).
# [3] = tested on: human and rodent cell lines; conditions: cited from earlier work
# [4] = tested on: WS1 human diploid fibroblasts; assay: Frequency of micronuclei (DAPI) in WS1 normal diploid fibroblasts; format: cell-based; conditions: WS1 cells, drug for 3 days
# Description: (§2) Wild type (wt) WS1 human diploid fibroblasts, or transformants expressing the neomycin resistance gene (neo) or both neo and the human papilloma virus E6 protein (E6) were generated by retroviral transduction. These cells were cultured in the absence or the presence of HU or PALA at the indicated concentrations for 3 days. […] The number of micronuclei were scored and expressed as the frequency of micronuclei (%) relative to the number of interphase nuclei scored (more than 1000 for each point). In FIG. 7B, cell cycle effects of these drugs were examined as in FIG. 2B. […] In FIG. 7C, progression through S-phase or M-phase was monitored by the incorporation of [^3H]thymidine (closed symbols) or the fraction of mitotic cells determined by microscopic detection of metaphase figures (open symbols). In FIG. 7D, the cells on the cover slips were fixed, stained with DAPI, and the frequencies of micronuclei relative to the number of interphase nuclei were scored. More than 500 nuclei were counted for each point and the results are expressed as mean±S.D for WS1 neo and WS1-E6 cells (3 independent determinations for each strain; the error bars for WS1 neo data points were smaller than the sizes of the symbols). Nuclear budding frequencies were determined on the same slides as used to determine micronucleation index (more than 1000 nuclei for each point). […]
# [5] = tested on: WS1 human diploid fibroblasts; assay: Cell cycle distribution of WS1 fibroblasts by flow cytometry; format: cell-based; conditions: WS1 cells, drug for 3 days
# Description: as §2
# [6] = tested on: WS1 E6 cells; assay: Frequency of micronuclei (DAPI) in WS1 E6 fibroblasts; format: cell-based, human; conditions: WS1 fibroblasts expressing E6, drug for 3 days
# Description: as §2
# [7] = tested on: COLO 320DM cells; assay: Apoptosis in COLO 320DM cells (TUNEL assay); format: cell-based, human; conditions: COLO 320DM cultures, prolonged incubation
# Description: TUNEL assay was done according to a previously published procedure (Gavrieli, et al. (1992)) and modified as described below. In brief, COLO 320DM cells were fixed in 2% PFA (10 min at room temperature), and centrifuged onto a glass slide using a cytospin apparatus. The cells were further fixed in cold methanol (−20° C., 5 min) followed by cold acetone (−20° C., 5 min). The slides were rehydrated in PBS, then equilibrated in reaction buffer (200 mM sodium cacodylate, 1 mM MgCl2, 1 mM β-mercaptoethanol, pH 7.2) for 15 min at room temperature. The end-labeling reaction was done by incubating the slides with the reaction buffer containing 10 μM biotin-dUTP (Boehringer Mannheim GmbH, Germany), and 0.3 units/μl of terminal deoxynucleotidyl transferase (Toyobo Co., Osaka, Japan), for 60 min at 37° C. The slides were washed extensively, blocked with 20% FCS, and the incorporated biotin was detected using FITC conjugated streptavidin as in the protocol for FISH (see below). The slides were treated with RNAse A (100 μg/ml 37° C., for 20 min), counterstained with PI, and observed under the conditions used for FISH.
# [8] = tested on: COLO 320DM cells; assay: DM content per cell by competitive PCR amplification; format: cell-based, human; conditions: HU treatment, data not shown
# [9] = tested on: COLO 320DM cells; assay: Localization of DMs in interphase nuclei by FISH and confocal microscopy; format: cell-based, human; conditions: 100 μM HU for 3 days
# Description: Preparation of probe from purified micronuclei was as described (Shimizu, et al. (1996)), except that DNA in the purified micronuclei was directly used for biotin-labeling by using BioPrime DNA Labeling System (Life Technologies Inc. Gaithersburg, Md.). FISH using standard methanol/acetic acid-fixed nuclei was performed as described previously (Shimizu, et al. (1996)). Assessments of DM localization by confocal microscopy required the following procedure to preserve the spherical shape of the nuclei. This protocol, based on that developed for human lymphocytes (Ferguson and Ward (1992) and Vourc'h, et al. (1993)), could not be applied directly to COLO 320DM due to severe nuclear aggregation. The modified procedure involves pelleting 10 ml of COLO 320DM cells by centrifugation at 260×g for 5 min, followed by complete removal of the supernatant. […] The acquired digital images were expressed as pseudocolors, and merged using Adobe Photoshop (Adobe Systems Inc., Mountain View, Calif.).
# The locations of DMs in confocal nuclear sections were determined by measuring the distance from each of the hybridized signals to the center of the nucleus using the corresponding nuclear diameter as a unit length. […] The distances from this dot to the center of the nucleus and the nuclear diameter were determined. […] At the same time, the intensity of each signal was measured using an arbitrary unit scale. […]
# [10] = tested on: WS1 E6 cells; assay: Cell cycle distribution of WS1 E6 fibroblasts by flow cytometry; format: cell-based, human; conditions: WS1 fibroblasts expressing E6, drug for 3 days
# Description: as §2
smiles,measurement,setting,value
"O=c1ccc2ccccc2o1 [Coumarin, 1,2-benzopyrone]",micronucleation (frequency of c-myc+ micronuclei),[1],no effect on micronucleation
C[S+](C)[O-] [DMSO],"cell cycle distribution (fraction of cells in G1, S, G2/M)",[2],without lengthening S-phase
same,micronucleation (frequency of c-myc+ micronuclei),[1],increased micronucleation
same,DM copy number,[3]; some tumor cell lines,reduce DM copy number
"NC(=O)NO [HU, hydroxyurea]",micronucleation rate,[4],not increased
same,cell cycle effect,[5],did not significantly affect the percentage of WS1 cells in S-phase
same,micronucleation rate,[6],substantial further increase in micronucleation rate
same,apoptosis,[7],apoptotic cells did arise
same,reduction of DM content per cell,[8],approximately 3 fold
same,nuclear position of DMs (peripheral localization),[9],preferentially depleted DMs from the nuclear periphery; also recorded: Very few peripheral DMs were detected
same,micronucleation (frequency of c-myc+ micronuclei),[1],substantial increases in micronucleation
same,number of cells in S-phase,[10],significant increase in the number of cells in S-phase
same,loss rate of DMs,[3]; human and rodent cell lines,significantly increase the loss rate of DMs
"O=C(O)C[C@H](NC(=O)CP(=O)(O)O)C(=O)O [PALA, N-phosphonacetyl-L-aspartate]",micronucleation rate,[4],not increased
same,cell cycle effect,[5],induced a G1 cell cycle arrest
same,micronucleation rate,[6],substantial further increase in micronucleation rate
same,micronucleation (frequency of c-myc+ micronuclei),[1],substantial increases in micronucleation; also recorded: induces S-phase micronucleation
same,micronucleation efficiency at concentrations that severely inhibited S-phase,[1],sharp decrease in micronucleation efficiency
same,number of cells in S-phase,[10],significant increase in the number of cells in S-phase
"C[C@@]1(CO)[C@H](O)CC[C@@]2(C)[C@H]1CC[C@H]1C[C@@H]3C[C@@]12CC[C@]3(O)CO [aphidicolin, Aphidicolin]",micronucleation (frequency of c-myc+ micronuclei),[1],substantial increases in micronucleation
"CC(=O)N(O)CCCCCNC(=O)CCC(=O)N(O)CCCCCNC(=O)CCC(=O)N(O)CCCCCN [deferoxamine, deferoxamine mesylate]",micronucleation (frequency of c-myc+ micronuclei),[1],substantial increases in micronucleation
same,micronucleation efficiency at concentrations that severely inhibited S-phase,[1],sharp decrease in micronucleation efficiency
"Nc1n[nH]c(N)n1 [guanazole, 3,5-diamino-1,2,4-triazole]",micronucleation (frequency of c-myc+ micronuclei),[1],substantial increases in micronucleation
NC(=O)c1cccnc1 [nicotinamide],"cell cycle distribution (fraction of cells in G1, S, G2/M)",[2],significant increase in the G2 fraction
same,micronucleation (frequency of c-myc+ micronuclei),[1],small increase
